Source: US6716881B2, “Carbanilides used as pesticides” (Bayer Aktiengesellschaft, priority 1996, dated 2004)

Experiments:
Venturia inaequalis = assay: Venturia test (apple)/protective (Example B, spray liquor concentration); format: in vivo; details: protective, 100 ppm in spray liquor, evaluation 12 days after inoculation
Experimental: Venturia Test (Apple)/Protective
To produce a suitable preparation of active compound, 1 part by weight of active compound is mixed with the stated amounts of solvent and emulsifier, and the concentrate is diluted with water to the desired concentration.
To test for protective activity, young plants are sprayed with the preparation of active compound until dew-moist. After the spray-coating has dried on, the plants are inoculated with an aqueous conidia suspension of the causative organism of apple scab Venturia inaequalis and then remain in an incubation cabin at 20° C. and 100% relative atmospheric humidity for 1 day.
The plants are then placed in a greenhouse at 23° C. and a relative atmospheric humidity of approximately 70%.
Evaluation is carried out 12 days after the inoculation. 0% means an efficacy which corresponds to that of the untreated control, while an efficacy of 100% means that no infection is observed.

Coniophora puteana = assay: Inhibitory test with giant colonies of Basidiomycetes (Coniophora puteana); format: cell-based; details: after 3 or 7 days at 26° C., vs untreated control; for Inhibition of the growth of the hypha in % with Coniophora puteana at an active compound concentration of 1 ppm: 1 ppm in agar; for Inhibition of the growth of the hypha in % with Coniophora puteana at an active compound concentration of 3 ppm: 3 ppm in agar; for Inhibition of the growth of the hypha in % with Coniophora puteana at an active compound concentration of 6 ppm: 6 ppm in agar
Experimental: (§1) Inhibitory Test with Giant Colonies of Basidiomycetes.
(§2) To produce a suitable preparation of active compound, 0.2 parts by weight of active compound are admixed with 99.8 parts by weight of the abovementioned solvent.
(§3) An agar which has been prepared using malt extract peptone is mixed in the liquid state with the preparation of active compound at the particular desired application rate. After the agar has set, the resulting nutrient medium is incubated at 26° C. with pieces of mycelium which had been punched out of colonies of Coniophora puteana or Coriolus versicolor.
(§4) Evaluation is carried out after 3 or 7 days' storage at 26° C. by measuring the growth of the hypha and scoring the resulting inhibition in percent in comparison to the untreated control. 0% means an inhibition of growth which corresponds to that of the untreated control, while an inhibition of growth of 100% means that no growth of the hypha is observed.

Coriolus versicolor = assay: Inhibitory test with giant colonies of Basidiomycetes (Coriolus versicolor); format: cell-based; details: after 3 or 7 days at 26° C., vs untreated control; for Inhibition of the growth of the hypha in % with Coriolus versicolor at an active compound concentration of 1 ppm: 1 ppm in agar; for Inhibition of the growth of the hypha in % with Coriolus versicolor at an active compound concentration of 3 ppm: 3 ppm in agar; for Inhibition of the growth of the hypha in % with Coriolus versicolor at an active compound concentration of 6 ppm: 6 ppm in agar
Experimental: as §1, §2, §3, §4

| Structure (SMILES) | Efficacy in % at an active compound concentration in the spray liquor of 100 ppm (Venturia inaequalis) | Inhibition of the growth of the hypha in % with Coniophora puteana at an active compound concentration of 1 ppm (Coniophora puteana) | Inhibition of the growth of the hypha in % with Coniophora puteana at an active compound concentration of 3 ppm (Coniophora puteana) | Inhibition of the growth of the hypha in % with Coniophora puteana at an active compound concentration of 6 ppm (Coniophora puteana) | Inhibition of the growth of the hypha in % with Coriolus versicolor at an active compound concentration of 1 ppm (Coriolus versicolor) | Inhibition of the growth of the hypha in % with Coriolus versicolor at an active compound concentration of 3 ppm (Coriolus versicolor) | Inhibition of the growth of the hypha in % with Coriolus versicolor at an active compound concentration of 6 ppm (Coriolus versicolor) |
| --- | --- | --- | --- | --- | --- | --- | --- |
| Cc1nc(C(F)(F)F)c(C(=O)Nc2ccccc2Oc2ccccc2)s1 | 94% | – | – | – | – | – | – |
| Cc1nc(C(F)(F)F)c(C(=O)Nc2ccccc2C=Cc2ccccc2)s1 [Example 5] | – | 70% | 80% | 100% | 70% | 90% | 100% |
| Cc1nn(C)cc1C(=O)Nc1ccccc1C=Cc1ccccc1 [Example 18] | – | 70% | 100% | 100% | 70% | 100% | 100% |
| Cc1nn(C)c(Cl)c1C(=O)Nc1ccccc1CSc1ccccc1 [Example 39] | – | 70% | 80% | 90% | 90% | 100% | 100% |
| Cc1nc(C(F)(F)F)c(C(=O)Nc2ccccc2CSc2ccccc2)s1 [Example 40] | – | 50% | 60% | 70% | 40% | 70% | 90% |
| Cc1ccc(SCc2ccccc2NC(=O)c2c(C)nn(C)c2Cl)cc1 [Example 45] | – | 70% | 80% | 90% | 90% | 100% | 100% |
| Cc1ccc(OCc2ccccc2NC(=O)c2cn(C)nc2C(F)(F)F)c(C)c1 [Example 52] | – | 80% | 90% | 100% | 90% | 100% | 100% |
| CC1=C(C(=O)Nc2ccccc2OCc2ccc(C)cc2C)SCCO1 [Example 78] | – | 70% | 80% | 90% | 90% | 90% | 100% |
| Cc1nn(C)cc1C(=O)Nc1ccccc1CSc1ccc(Cl)cc1 [Example 81] | – | 70% | 90% | 100% | 90% | 90% | 100% |
| Cc1nn(C)c(Cl)c1C(=O)Nc1ccccc1CSc1ccc(Cl)cc1 [Example 84] | – | 80% | 80% | 100% | 90% | 100% | 100% |
| Cc1nc(C(F)(F)F)c(C(=O)Nc2ccccc2CSc2ccc(Cl)cc2)s1 [Example 85] | – | 70% | 80% | 80% | 70% | 70% | 90% |
| Cc1ccc(OCc2ccccc2NC(=O)c2cn(C)nc2C(F)F)cc1 [Example 119] | – | 100% | 100% | 100% | 100% | 100% | 100% |
| Cn1cc(C(=O)Nc2ccccc2COc2ccccc2)c(C(F)F)n1 [Example 123] | – | 100% | 100% | 100% | 100% | 100% | 100% |
| Cc1cccc(OCc2ccccc2NC(=O)c2cn(C)nc2C(F)F)c1 [Example 139] | – | 100% | 100% | 100% | 100% | 100% | 100% |
| CC1=C(C(=O)Nc2ccccc2COc2ccccc2)SCCO1 [Example 141] | – | 80% | 100% | 100% | 90% | 100% | 100% |
| CC1=C(C(=O)Nc2ccccc2COc2cccc(C)c2)SCCO1 [Example 142] | – | 70% | 90% | 100% | 90% | 90% | 100% |
| CC1=C(C(=O)Nc2ccccc2COc2ccc(C)cc2)SCCO1 [Example 143] | – | 80% | 90% | 100% | 100% | 100% | 100% |
| CC1=C(C(=O)Nc2ccccc2COc2ccccc2C)SCCO1 [Example 144] | – | 70% | 90% | 100% | 90% | 100% | 100% |
